How the values were obtained:
SL2-1 [1] = molecular target: T1, SL2-1 (Streptomyces rapamycinicus, UniProt A0ABR6LWE4); assay: lectin capture in Microcon-30 filter, UPLC-HILIC-FLR; format: binding; details: labelled compound (2-AB); mixture of four glycans, 4 pmol each, 20 μg SL2-1, 10 mM Tris-HCl pH 8.0, room temperature; proteinase K elution
T1 construct: gene BJY27_006859; monomer with three ~40-residue repeats
T1 sequence (A0ABR6LWE4 31-188): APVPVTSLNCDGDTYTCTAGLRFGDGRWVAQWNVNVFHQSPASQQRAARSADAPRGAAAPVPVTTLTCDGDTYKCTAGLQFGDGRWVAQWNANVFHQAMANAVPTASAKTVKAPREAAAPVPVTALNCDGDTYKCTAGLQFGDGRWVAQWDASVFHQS

SL2-1 [2] = molecular target: T1, SL2-1; assay: isothermal titration calorimetry; format: binding; details: 20 mM sodium phosphate pH 7.4, 25 °C
From the text: isothermal titration calorimetry on SL2-1

% of total loaded recovered from lectin-bound fraction (SL2-1 [1]) [%] | Compound | also measured
91 | CC(=O)N[C@H]1[C@H](O[C@@H]([C@H](O)[C@H](CNc2ccccc2C(N)=O)NC(C)=O)[C@H](O)CO[C@@H]2O[C@@H](C)[C@@H](O)[C@@H](O)[C@@H]2O)O[C@H](CO)[C@@H](O[C@@H]2O[C@H](CO[C@H]3O[C@H](CO)[C@@H](O)[C@H](O)[C@@H]3O)[C@@H](O)[C@H](O[C@H]3O[C@H](CO)[C@@H](O)[C@H](O)[C@@H]3O)[C@@H]2O)[C@@H]1O [M3N2F, 2-aminobenzamide (2-AB)-labeled trimannosyl core N-glycan (paucimannose) with core α1-6 fucose] | –
– | CC(=O)N[C@H]1[C@H](O[C@H]2[C@H](O)[C@@H](NC(C)=O)C(O)O[C@@H]2CO[C@@H]2O[C@@H](C)[C@@H](O)[C@@H](O)[C@@H]2O)O[C@H](CO)[C@@H](O)[C@@H]1O (stereo partly drawn) [N2F, α1-6 fucosylated chitobiose] | Kd (SL2-1 [2]; n = 2.01): 1590 nM
95 | CC(=O)N[C@H]1[C@H](O[C@@H]([C@H](O)[C@H](CNc2ccccc2C(N)=O)NC(C)=O)[C@H](O)CO[C@@H]2O[C@@H](C)[C@@H](O)[C@@H](O)[C@@H]2O)O[C@H](CO)[C@@H](O[C@@H]2O[C@H](CO[C@H]3O[C@H](CO)[C@@H](O)[C@H](O)[C@@H]3O[C@@H]3O[C@H](CO)[C@@H](O[C@@H]4O[C@H](CO)[C@H](O)[C@H](O)[C@H]4O)[C@H](O)[C@H]3NC(C)=O)[C@@H](O)[C@H](O[C@H]3O[C@H](CO)[C@@H](O)[C@H](O)[C@@H]3O[C@@H]3O[C@H](CO)[C@@H](O[C@@H]4O[C@H](CO)[C@H](O)[C@H](O)[C@H]4O)[C@H](O)[C@H]3NC(C)=O)[C@@H]2O)[C@@H]1O [NA2F, 2-aminobenzamide (2-AB)-labeled asialo-, galactosylated biantennary N-glycan with core α1-6 fucose] | –
– | CC(=O)N[C@H]1[C@H](O[C@H]2[C@H](O)[C@@H](NC(C)=O)C(O)O[C@@H]2CO[C@@H]2O[C@@H](C)[C@@H](O)[C@@H](O)[C@@H]2O)O[C@H](CO)[C@@H](O[C@@H]2O[C@H](CO[C@H]3O[C@H](CO)[C@@H](O)[C@H](O)[C@@H]3O[C@@H]3O[C@H](CO)[C@@H](O[C@@H]4O[C@H](CO[C@]5(C(=O)O)C[C@H](O)[C@@H](NC(C)=O)[C@H]([C@H](O)[C@H](O)CO)O5)[C@H](O)[C@H](O)[C@H]4O)[C@H](O)[C@H]3NC(C)=O)[C@@H](O)[C@H](O[C@H]3O[C@H](CO)[C@@H](O)[C@H](O)[C@@H]3O[C@@H]3O[C@H](CO)[C@@H](O[C@@H]4O[C@H](CO)[C@H](O)[C@H](O)[C@H]4O)[C@H](O)[C@H]3NC(C)=O)[C@@H]2O)[C@@H]1O (stereo partly shown) [A1F, monosialo-fucosylated biantennary N-glycan] | Kd (SL2-1 [2]; n = 1.85): 1060 nM

— publication PMC5039751, “Profiling of core fucosylated N-glycans using a novel bacterial lectin that specifically recognizes α1,6 fucosylated chitobiose” (Scientific Reports, 2016)
